“And” between values parts separate entries of the source, which are not always exact repeats. Identical values can stand only once.
Assays:
[1] = test system: MDA-MB-231 breast cancer cells; test: MTT cell proliferation assay; type: cell-based; details: MDA-MB-231, 0-200 µM, 72 h
Protocol: (§1) These MDA-MB-231 breast cancer cells were treated with 1f at different concentrations, i.e., 0, 1.56, 3.125, 6.25, 12.5, 25, 50, 100, and 200 µM, for 72 h.
(§2) MDA-MB-231 breast cancer cells and MCF-10A normal breast epithelial cells (from ATCC, Manassas, VA, USA) were seeded into 96-well plates at a density of 4 × 10^3 cells per well. After overnight incubation at 37 °C, the cells were treated with varying concentrations of compound 1f (0, 1.56, 3.125, 6.25, 12.5, 25, 50, 100, and 200 µM) and incubated for an additional 72 h. Untreated cells served as the negative control. Subsequently, 10 µL of the MTT solution (5 mg/mL) was added to each well, and the plates were incubated for 3 h to assess cell viability. The medium was then discarded, and the absorbance was measured at 570 nm using a microplate reader (Promega GloMax, Madison, WI, USA).

[2] = test system: MDA-MB-231 breast cancer cell line; test: Annexin V-FITC/PI apoptotic assay (FACS); type: cell-based; details: MDA-MB-231, 3.33 µM
Protocol: Apoptosis is considered a preventive mechanism against cancer dissemination, as it plays a crucial role in eliminating excessively proliferating and mutated cancer cells from the body. Following the administration of cytotoxic drugs as treatment for various types of cancer, apoptosis is a significant contributor to cellular death. […] We proceeded to investigate whether compound 1f triggers apoptosis or not. The MDA-MB-231 breast cancer cell line was treated with 1f for 24, 48, and 72 h. A quantitative evaluation of apoptotic activity was performed using FACS.
To evaluate the pro-apoptotic effect of compound 1f, Annexin V-FITC/PI dual staining was conducted. Cells were seeded into 12-well plates at a density of 1 × 10^5 cells per well and treated with the compound for 24, 48, and 72 h. Post-treatment, the cells were collected using 1X trypsin, including both floating and adherent cells, and centrifuged at 4000 rpm for 5 min. The resulting pellet was resuspended in 100 µL of 1X Annexin V binding buffer and stained with Annexin V-FITC, followed by a 15 min incubation in the dark at 4 °C. Cells were then washed, resuspended in fresh binding buffer, and stained with propidium iodide before immediate analysis via flow cytometry.

MDA-MB-231 cells = test: Cell cycle assay, PI staining, flow cytometry; type: cell-based; details: MDA-MB-231, 24 h
Protocol: Cell proliferation is well associated with the regulation of cell cycle progression. Therefore, the effect of 1f on cell cycle distribution was evaluated by flow cytometry in PI-stained cells.
Cell cycle distribution was assessed by propidium iodide (PI) staining followed by flow cytometric analysis. Cells (3 × 10^5/well) were plated in 6-well plates and allowed to adhere for 24 h. To synchronize the cell cycle, the medium was replaced with serum-free medium for 8 h. After synchronization, cells were treated with various concentrations of compound 1f for 24 h. Following treatment, cells were harvested with 1X trypsin, washed with cold PBS, and fixed in 70% ethanol at 4 °C for 2 h. Fixed cells were washed twice with PBS, then incubated overnight in a staining solution containing RNase A (1 µL, 10 mg/mL) and PI (5 µL, 1 mg/mL) in 1X PBS. Cell cycle distribution was subsequently determined using flow cytometry.

[3] = test system: MCF-10a (normal breast cells)
Protocol: as §1, §2

## C=C1CCC2C3(C)COC(c4cn(-c5ccccc5)nc4-c4ccc(F)cc4)OC3CCC2(C)C1CC=C1C(=O)OCC1O (stereo not drawn) [1f, 3,19-(N-Phenyl-3-(4-fluorophenyl)-pyrazole) Acetal of Andrographolide]
[1]
  anti-proliferation activity (MTT): strong dose-dependent anti-proliferation activity
[2]; 24 h
  apoptotic cells (total): remained almost the same
[2]; 48 h
  apoptotic cells (total): 44%
  early apoptosis (Q3): 10.3%
  late apoptosis (Q2): 33.0%
[2]; 72 h
  apoptotic cells (total): 55%
  early apoptosis (Q3): 14.7%
  late apoptosis (Q2): 40.6%
MDA-MB-231 cells; 3.33 µM
  G1 (%): 77.36 ± 0.69%
  G2 (%): 6.94 ± 0.28%
  S (%): 14.2% and 14.4 ± 0.95%
MDA-MB-231 cells; 5.00 µM
  G1 (%): 62.83 ± 1.2%
  G2 (%): 4.87 ± 0.26%
  S (%): 25.2% and 26.5 ± 0.96%
MDA-MB-231 cells; 6.66 µM
  G1 (%): 59.6% and 57.83 ± 1.2%
  G2 (%): 4.01% and 3.82 ± 0.20%
  S (%): 21.9 ± 1.03%
[3]
  CC50: 50 µM

— publication PMC12298351, “Novel 3,19-(N-Phenyl-3-(4-fluorophenyl)-pyrazole) Acetal of Andrographolide Promotes Cell Cycle Arrest and Apoptosis in MDA-MB-231 Breast Cancer Cells” (Pharmaceuticals, 2025)
